From US12545685B2 (Daiichi Sankyo Company, Limited, priority 2011, dated 2026) come the findings set out here.

Structures are written as SMILES.

In general, IC50 refers to the point on the concentration scale where inhibition reaches its midpoint. Read a high IC50 as a need for much substance.

The target in this assay is T1, Mdm2/p53 binding (GST-Mdm2 / His-p53) (Homo sapiens, UniProt Q00987, L33E).
T1 construct: Mdm2 partial protein having Mdm2 amino acids at positions 25 to 108
T1 sequence (Q00987 25-108 L33E): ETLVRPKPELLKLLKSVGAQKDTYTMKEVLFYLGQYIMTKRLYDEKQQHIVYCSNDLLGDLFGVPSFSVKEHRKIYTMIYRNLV
As to the kind of experiment: Mdm2/p53 binding assay (HTRF, His-p53 and GST-Mdm2). Particulars: His-p53 (aa 1-132) and GST-Mdm2 (aa 25-108, L33E) 6.25 nM each; 25°C, 1 hour; values given as ranges. As to the method:
A protein dilution containing 6.25 nM each of His-p53 (fusion protein of a p53 partial protein having p53 amino acids at positions 1 to 132, with a histidine protein) and GST-Mdm2 (fusion protein of an Mdm2 partial protein having Mdm2 amino acids at positions 25 to 108 with leucine residue 33 substituted by glutamic acid, with glutathione transferase) proteins was prepared using a protein buffer solution (20 mM HEPES pH 7.4, 150 mM NaCl, 0.1% BSA). This protein dilution was added in an amount of 8 μl/well to a 384-well plate (384-well low volume NBC, Corning Inc., catalog No: 3676).
Next, a test compound was diluted with DMSO to produce a protein buffer solution containing 10% dilution, and this buffer solution was added in an amount of 4 μl/well to the plate.
Subsequently, a solution containing an XL665-labeled anti-His antibody (HTRF monoclonal anti-6HIS antibody labeled with XL665 (catalog No: 61HISXLB), Schering/Cisbio Bioassays) and a europium (Eu)-labeled anti-GST antibody (HTRF monoclonal anti-GST antibody labeled with europium cryptate, Schering/Cisbio Bioassays, catalog No: 61GSTKLB) at concentrations of 2.5 μg/ml and 0.325 μg/ml, respectively, was prepared using an antibody diluting buffer solution (20 mM HEPES pH 7.4, 150 mM NaCl, 0.1% BSA, 0.5 M KF). These dilutions were added in an amount of 8 μl/well (total reaction solution volume: 20 μl/well). Then the plate was incubated at 25° ° C. for 1 hour.
Time-resolved fluorescence at 620 and 665 nm was measured at an excitation wavelength of 320 nm using a plate reader (ARVOsx, PerkinElmer Co., Ltd. or PHERAstar, BMG LABTECH). Ratio (R) was calculated using the measured values (RFU 620 nm and RFU 665 nm) according to the following formula: […]
BI: measured value at 665 nm of reaction solution (only each buffer solution) nonsupplemented with each protein, the compound, and the antibodies
A and D: each measured value at 665 nm and 620 nm of reaction solution supplemented with only Eu-labeled anti-GST antibody solution
The R value calculated from the well supplemented with His-p53, GST-Mdm2, the test compound, and each antibody was defined as R (sample). The R value calculated from the well supplemented with His-p53, GST-Mdm2, and each antibody but without the test compound was defined as R (control). The R value calculated from the well supplemented with GST-Mdm2 the test compound, and each antibody but without His-p53 was defined as R (background). T/C was calculated from the formula shown below. An IC50 value for Mdm2/p53 binding was calculated by sigmoid fitting.
Compound `CC1(C)CCC2(CC1)N[C@@H](C(=O)N[C@H]1CC[C@H](c3noc(=O)[nH]3)CC1)[C@H](c1cccc(Cl)c1F)[C@]21C(=O)Nc2cc(Cl)ccc21` [Example 48, (3′S,4′S,5′R)-6′-chloro-4′-(3-chloro-2-fluorophenyl)-4,4-dimethyl-2″-oxo-N-[trans-4-(5-oxo-4,5-dihydro-1,2,4-oxadiazol-3-yl)cyclohexyl]-1″,2″-dihydrodispiro[cyclohexane-1,2′-pyrrolidine-3′,3″-indole]-5′-carboxamide] had an IC50 of 1 to 50 nM.

Turning to `CC1(C)CCC2(CC1)N[C@@H](C(=O)N[C@@H]1CC[C@@H](c3nnco3)OC1)[C@H](c1ccnc(Cl)c1F)[C@]21C(=O)Nc2nc(Cl)ccc21` [Example 50, (3′R, 4′S,5′R)-6″-chloro-4′-(2-chloro-3-fluoropyridin-4-yl)-4,4-dimethyl-N-[(3R,6S)-6-(1,3,4-oxadiazol-2-yl)tetrahydro-2H-pyran-3-yl]-2″-oxo-1″,2″-dihydrodispiro[cyclohexane-1,2′-pyrrolidine-3′,3″-pyrrolo[2,3-b]pyridine]-3′-carboxamide], the IC50 lay within 50 to 100 nM.

Compound `CC1(C)CCC2(CC1)N[C@@H](C(=O)N[C@@H]1CC[C@@H](c3nnco3)OC1)[C@H](c1cccc(Cl)c1F)[C@]21C(=O)Nc2nc(Cl)ccc21` [Example 52, (3′R, 4′S,5′R)-6″-chloro-4′-(3-chloro-2-fluorophenyl)-4,4-dimethyl-N-[(3R,6S)-6-(1,3,4-oxadiazol-2-yl)tetrahydro-2H-pyran-3-yl]-2″-oxo-1″,2″-dihydrodispiro[cyclohexane-1,2′-pyrrolidine-3′,3″-pyrrolo[2,3-b]pyridine]-5′-carboxamide] had an IC50 of 50 to 100 nM.

The compound `CC1(C)CCC2(CC1)N[C@@H](C(=O)N[C@@H]1CC[C@@H](c3n[nH]c(=O)o3)OC1)[C@H](c1cccc(Cl)c1F)[C@]21C(=O)Nc2nc(Cl)ccc21` [Example 55, (3′R, 4′S,5′R)-6″-chloro-4′-(3-chloro-2-fluorophenyl)-4,4-dimethyl-2″-oxo-N-[(3R,6S)-6-(5-oxo-4,5-dihydro-1,3,4-oxadiazol-2-yl)tetrahydro-2H-pyran-3-yl]-1″,2″-dihydrodispiro[cyclohexane-1,2′-pyrrolidine-3′,3″-pyrrolo[2,3-b]pyridine]-5′-carboxamide] came in with an IC50 of 1 to 50 nM.

Consider `CC1(C)CCC2(CC1)N[C@@H](C(=O)N[C@@H]1CC[C@@H](c3n[nH]c(=O)o3)OC1)[C@H](c1ccnc(Cl)c1)[C@]21C(=O)Nc2cc(Cl)ccc21` [Example 56, (3′R, 4′R, 5′R)-6″-chloro-4′-(2-chloropyridin-4-yl)-4,4-dimethyl-2″-Oxo-N-[(3R,6S)-6-(5-oxo-4,5-dihydro-1,3,4-oxadiazol-2-yl)tetrahydro-2H-pyran-3-yl]-1″,2″-dihydrodispiro[cyclohexane-1,2′-pyrrolidine-3′,3″-indole]-5′-carboxamide], for which the IC50 was in the range of 1 to 50 nM.

In turn, `CO[C@H]1C[C@@H](NC(=O)[C@@H]2NC3(CCC(C)(C)CC3)[C@@]3(C(=O)Nc4nc(Cl)ccc43)[C@H]2c2cccc(Cl)c2F)CO[C@@H]1CO` [Example 58, (3′R, 4′S,5′R)-6″-chloro-4′-(3-chloro-2-fluorophenyl)-N-[(3R,5S,6R)-6-(hydroxymethyl)-5-methoxytetrahydro-2H-pyran-3-yl]-4,4-dimethyl-2″-oxo-1″,2″-dihydrodispiro[cyclohexane-1,2′-pyrrolidine-3′,3″-pyrrolo[2,3-b]pyridine]-5′-carboxamide] returned a 50% inhibitory concentration (IC50) of 50 to 100 nM.

For `CO[C@H]1C[C@@H](NC(=O)[C@@H]2NC3(CCC(C)(C)CC3)[C@@]3(C(=O)Nc4cc(Cl)ccc43)[C@H]2c2ccnc(Cl)c2)CO[C@@H]1CO` [Example 59, (3′R, 4′R, 5′B)-6″-chloro-4′-(2-chloropyridin-4-yl)-N-[(3R,5S,6R)-6-(hydroxymethyl)-5-methoxytetrahydro-2H-pyran-3-yl]-4,4-dimethyl-2″-oxo-1″,2″-dihydrodispiro[cyclohexane-1,2′-pyrrolidine-3′,3″-indole]-5′-carboxamide], the IC50 is 50 to 100 nM.

As for `COC[C@]1(O)CC[C@@H](NC(=O)[C@@H]2NC3(CCC(C)(C)CC3)[C@@]3(C(=O)Nc4cc(Cl)ccc43)[C@H]2c2ccnc(Cl)c2F)CC1` [Example 61, (3′R, 4′S,5′R)-6″-chloro-4′-(2-chloro-3-fluoropyridin-4-yl)-N-[cis-4-hydroxy-4-(methoxymethyl)cyclohexyl]-4,4-dimethyl-2″-oxo-1″,2″-dihydrodispiro[cyclohexane-1,2′-pyrrolidine-3′,3″-indole]-5′-carboxamide], the IC50 lay in the range of 50 to 100 nM.

Compound `CC1(C)CCC2(CC1)N[C@@H](C(=O)N[C@@H]1CC[C@@H](c3ncon3)OC1)[C@H](c1cccc(Cl)c1F)[C@]21C(=O)Nc2nc(Cl)ccc21` [Example 62, (3′R, 4′S,5′R)-6″-chloro-4′-(3-chloro-2-fluorophenyl)-4,4-dimethyl-N-[(3R,6S)-6-(1,2,4-oxadiazol-3-yl)tetrahydro-2H-pyran-3-yl]-2″-oxo-1″,2″-dihydrodispiro[cyclohexane-1,2′-pyrrolidine-3′,3″-pyrrolo[2,3-b]pyridine]-5′-carboxamide] had an IC50 of 50 to 100 nM.

Turning to `CC1(C)CCC2(CC1)N[C@@H](C(=O)N[C@@H]1CC[C@@H](c3ncon3)OC1)[C@H](c1ccnc(Cl)c1)[C@]21C(=O)Nc2cc(Cl)ccc21` [Example 63, (3′R,4′R,5′R)-6″-chloro-4′-(2-chloropyridin-4-yl)-4,4-dimethyl-N-[(3R,6S)-6-(1,2,4-oxadiazol-3-yl)tetrahydro-2H-pyran-3-yl]-2″-oxo-1″,2″-dihydrodispiro[cyclohexane-1,2′-pyrrolidine-3′,3″-indole]-5′-carboxamide], the IC50 was 50 to 100 nM.

As for `CC1(C)CCC2(CC1)N[C@@H](C(=O)N[C@@H]1CC[C@@H](c3ncon3)OC1)[C@H](c1ccnc(Cl)c1F)[C@]21C(=O)Nc2cc(Cl)ccc21` [Example 64, (3′R, 4′S,5′R)-6″-chloro-4′-(2-chloro-3-fluoropyridin-4-yl)-4,4-dimethyl-N-[(3R,6S)-6-(1,2,4-oxadiazol-3-yl)tetrahydro-2H-pyran-3-yl]-2″-oxo-1″,2″-dihydrodispiro[cyclohexane-1,2′-pyrrolidine-3′,3″-indole]-5′-carboxamide], the concentration for half-maximal inhibition (IC50) was 50 to 100 nM.

As for `CC1(C)CCC2(CC1)N[C@@H](C(=O)N[C@@H]1CC[C@@H](c3n[nH]c(=O)o3)OC1)[C@H](c1ccnc(Cl)c1F)[C@]21C(=O)Nc2nc(Cl)ccc21` [Example 65, (3′R, 4′S,5′R)-6″-chloro-4′-(2-chloro-3-fluoropyridin-4-yl)-4,4-dimethyl-2″-oxo-N-[(3R,6S)-6-(5-oxo-4,5-dihydro-1,3,4-oxadiazol-2-yl)tetrahydro-2H-pyran-3-yl]-1″,2″-dihydrodispiro[cyclohexane-1,2′-pyrrolidine-3′,3″-pyrrolo[2,3-b]pyridine]-5′-carboxamide], the 50% inhibitory concentration (IC50) lay within 1 to 50 nM.

In turn, `CC1(C)CCC2(CC1)N[C@@H](C(=O)N[C@@H]1CC[C@@H](c3ncon3)OC1)[C@H](c1ccnc(Cl)c1F)[C@]21C(=O)Nc2nc(Cl)ccc21` [Example 66, (3′R, 4′S,5′R)-6″-chloro-4′-(2-chloro-3-fluoropyridin-4-yl)-4,4-dimethyl-N-[(3R,6S)-6-(1,2,4-oxadiazol-3-yl)tetrahydro-2H-pyran-3-yl]-2″-oxo-1″,2″-dihydrodispiro[cyclohexane-1,2′-pyrrolidine-3′,3″-pyrrolo[2,3-b]pyridine]-5′-carboxamide] registered an IC50 of 50 to 100 nM.

The compound `CO[C@@H]1C[C@@H](NC(=O)[C@@H]2NC3(CCC(C)(C)CC3)[C@@]3(C(=O)Nc4nc(Cl)ccc43)[C@H]2c2cccc(Cl)c2F)CO[C@@H]1CO` [Example 68, (3′R, 4′S,5′R)-6″-chloro-4′-(3-chloro-2-fluorophenyl)-N-[(3R,5R,6R)-6-(hydroxymethyl)-5-methoxytetrahydro-2H-pyran-3-yl]-4,4-dimethyl-2″-oxo-1″,2″-dihydrodispiro[cyclohexane-1,2′-pyrrolidine-3′,3″-pyrrolo[2,3-b]pyridine]-5′-carboxamide] had a concentration for half-maximal inhibition (IC50) of 1 to 50 nM.
